Where “and” joins values, the source holds several entries; their conditions need not be identical. Equal entries are not always repeated.
How the values were obtained:
PP2A [1] = assay: PP2A activity in mouse livers after IP dosing (PP2A immunoprecipitation phosphatase assay, malachite green); format: in vivo, Balb/c mice; settings: liver
Description: (§1) Coomassie (Bradford) Protein Assay Kit (Pierce); PP2A Immunoprecipitation Phosphatase Assay Kit (Millipore); Lysate preparation for low endogenous phosphate: 20 mM imidazole-HCl, 2 mM EDTA, 2 mM EGTA, 1 mM PMSF, 1 mM benzamidine, 10 ug/ml each of aprotinin, leupeptin, antipain, soybean trypsin inhibitor; Normal Mouse IgG (Millipore); Okadaic acid (OA) (Tocris); DMSO (Sigma).
(§2) • Species: Mus Musculus • Strain: Balb/c mice • Age: 6-8 weeks • Sex: female • Body weight: 18-22 g • Vendor: Shanghai Laboratory Animal Center, Shanghai, China; • Number of animals: 66 Balb/c mice plus spare
(§3) The mice were kept in laminar flow rooms at constant temperature and humidity with 4 animals in each cage. • Temperature: 20-25 • Humidity: 40-70%. • Light cycle: 12 hours light and 12 hours dark. • Cages: Made of polycarbonate. The size is 29 cm×17.5 cm×12 cm (L×w×H). The bedding material is wood debris, which is changed once per week. • Diet: Animals had free access to irradiation sterilized dry granule food during the entire study period. • Water: Animals had free access to sterile drinking water. • Cage identification: the identification labels for each cage contained the following information: number of animals, sex, strain, date arrival, treatment, study number, group number, and the starting date of the treatment. • Animal identification: Animals were marked by ear punch.
(§4) All the procedures related to animal handling, care, and the treatment in this study were performed according to guidelines approved by the Institutional Animal Care and Use Committee (IACUC) of WuXi AppTec (Shanghai), following the guidance of the Association for Assessment and Accreditation of Laboratory Animal Care (AAALAC). At the time of routine monitoring, the animals were checked and recorded for any effects of tumor growth on normal behavior such as mobility, food and water consumption (by looking only), body weight gain/loss, eye/hair matting and any other abnormal effect.
(§5) 1. Proper amount of the compounds were weighed. 2. The compounds were dissolved in 4% sterile sodium bicarbonate. 3. All of the compounds should be well dissolved and clear. 4. The compounds should be kept cold once in solution and injected within an hour. 5. The mice were administered intraperitoneally according to their body weights, 20 g mouse was treated with 0.2 ml compound solution. 6. Mice were treated with vehicle and compounds according to Table 1. 7. 3 hours after the dose, 3 mice from each group were euthanized by
(§6) CO2 exposure, and the brains and left lobe of livers were taken and snap-frozen in liquid nitrogen immediately. 6 hours after the dose, the other 3 mice from each group were euthanized by CO2 exposure, and the brains and left lobe of livers were taken and snap-frozen in liquid nitrogen immediately.
(§7) Preparation of malachite green phosphate detection solution Added […] of Solution B to each 1 mL of Solution A, kept at room temperature during use. […] of mixed solution AB is used per assay well.
(§8) Diluted 125 mL Phosphate Standard (Solution C) with 1125 mL of distilled water to make 0.1 mM working solution. The solution was used to prepare a phosphate standard curve as described in the table below.
(§9) 1. 25 μL of each phosphate standards was transferred to wells of microliter plate. 2. Added 100 μL of Malachite Green Solution AB. Mixed carefully without creating bubbles. 3. Cultured for 15 minutes at RT. 4. Measured absorbance at a wavelength between 650 nm in a microliter plate reader.
(§10) 1. Dissolved 1 mg Threonine Phosphopeptide (Catalog #12-219) in 1.10 mL of distilled water to prepare a 1 mM solution. 2. Aliquot peptide solution and stored at ˜20° C. as necessary.
(§11) 1. Mouse brain or liver was homogenized using lysis buffer (25 g/L), centrifuged at 12000 g for 10 minutes at […], and the supernatants were collected. 2. The protein was quantitated, and 240 μg of mouse brain or liver lysate was taken to assay phosphatase activity. 3. […]

PP2A [2] = assay: PP2A activity in mouse brains after IP dosing (PP2A immunoprecipitation phosphatase assay, malachite green); format: in vivo, Balb/c mice; set-up: Average Conc. (group of 3 mice): unit not given here; settings: brain
Description: as §1, §2, §3, §4, §5, §6, §7, §8, §9, §10, §11

[3] = high dose IP (mpk: 100 1.5, 113 2.2, 151 1.6, 157 2.0), 3 h
[4] = high dose IP (mpk: 100 1.5, 113 2.2, 151 1.6, 157 2.0), 6 h
[5] = low dose IP (mpk: 100 0.75, 113 1.1, 151 0.8, 153 0.85, 157 1.0), 3 h
[6] = low dose IP (mpk: 100 0.75, 113 1.1, 151 0.8, 153 0.85, 157 1.0), 6 h
[7] = high dose IP (mpk: 100 1.5, 113 2.2, 151 1.6, 153 1.7, 157 2.0), 3 h
[8] = high dose IP (mpk: 100 1.5, 113 2.2, 151 1.6, 153 1.7, 157 2.0), 6 h

`COC(=O)C1C2CCC(O2)C1C(=O)N1CCN(C)CC1` (centres unmarked) [Compound 151] was tested, and the “Average Conc. (group of 3 mice)” value (PP2A [1]; [3]) was 472.47, the “Average Relative Activity (group, vehicle = 100)” value (from here on “Average Relative Activity”) (PP2A [1]; [3]) was 112.5 and the “Conc. (phosphate, single reading, per mouse)” value (PP2A [1]; [3]) was 387.96 and 418.01 and 367.5 and 404.51 and 757.23 and 772.47. For the same compound, the “Mean Conc. (per mouse)” value (PP2A [1]; [3]) was 402.99 and 386.01 and 764.85, the “Mean Conc. less IgG blank (per mouse)” value (PP2A [1]; [3]) was 357.51 and 340.53 and 719.38 and the “Relative Conc. (per mouse, to vehicle)” value (PP2A [1]; [3]) was 0.85 and 0.81 and 1.71. For the same compound, the “Relative PP2A Activity (per mouse, vehicle = 100)” value (PP2A [1]; [3]) was 85.13 and 81.08 and 171.29, the “Average Conc. (group of 3 mice)” value (PP2A [1]; [4]) was 241.1 and the “Average Relative Activity” value (PP2A [1]; [4]) was 54.24. The “Conc. (phosphate, single reading, per mouse)” value (PP2A [1]; [4]) was 320.03 and 325.26 and 287.37 and 311.32 and 231.2 and 244.26, the “Mean Conc. (per mouse)” value (PP2A [1]; [4]) was 322.65 and 299.35 and 237.73 and the “Mean Conc. less IgG blank (per mouse)” value (PP2A [1]; [4]) was 277.17 and 253.87 and 192.25. For the same compound, the “Relative Conc. (per mouse, to vehicle)” value (PP2A [1]; [4]) was 0.62 and 0.57 and 0.43, the “Relative PP2A Activity (per mouse, vehicle = 100)” value (PP2A [1]; [4]) was 62.36 and 57.11 and 43.25 and the “Average Conc. (group of 3 mice)” value (PP2A [1]; [5]) was 423.92. The “Average Relative Activity” value (PP2A [1]; [5]) was 100.94, the “Conc. (phosphate, single reading, per mouse)” value (PP2A [1]; [5]) was 430.64 and 449.36 and 437.61 and 446.75 and 521.21 and 530.8 and the “Mean Conc. (per mouse)” value (PP2A [1]; [5]) was 440 and 442.18 and 526. The “Mean Conc. less IgG blank (per mouse)” value (PP2A [1]; [5]) was 394.52 and 396.7 and 480.53, the “Relative Conc. (per mouse, to vehicle)” value (PP2A [1]; [5]) was 0.94 (2×) and 1.14 and the “Relative PP2A Activity (per mouse, vehicle = 100)” value (PP2A [1]; [5]) was 93.94 and 94.46 and 114.42. For the same compound, the “Average Conc. (group of 3 mice)” value (PP2A [1]; [6]) was 307.58, the “Average Relative Activity” value (PP2A [1]; [6]) was 69.2 and the “Conc. (phosphate, single reading, per mouse)” value (PP2A [1]; [6]) was 260.81 and 279.97 and 333.1 and 357.92 and 428.03 and 458.51. For the same compound, the “Mean Conc. (per mouse)” value (PP2A [1]; [6]) was 270.39 and 345.51 and 443.27, the “Mean Conc. less IgG blank (per mouse)” value (PP2A [1]; [6]) was 224.91 and 300.03 and 397.79 and the “Relative Conc. (per mouse, to vehicle)” value (PP2A [1]; [6]) was 0.51 and 0.67 and 0.89. For the same compound, the “Relative PP2A Activity (per mouse, vehicle = 100)” value (PP2A [1]; [6]) was 50.6 and 67.5 and 89.49, the “Average Conc. (group of 3 mice)” value (PP2A [2]; [7]) was 2166.08 and the “Average Relative Activity” value (PP2A [2]; [7]) was 87.89. For the same compound, the “Conc. (phosphate, single reading, per mouse)” value (PP2A [2]; [7]) was 3168.39 and 2285.85 and 2334.84 and 1781.17 and 1662.47 and 1991.94, the “Mean Conc. (per mouse)” value (PP2A [2]; [7]) was 2310.34 and 1721.82 and 2580.16 and the “Mean Conc. less IgG blank (per mouse)” value (PP2A [2]; [7]) was 2272.32 and 1683.79 and 2542.14. The “Relative Conc. (per mouse, to vehicle)” value (PP2A [2]; [7]) was 1.05 and 0.78 and 1.17, the “Relative PP2A Activity (per mouse, vehicle = 100)” value (PP2A [2]; [7]) was 92.20 and 68.32 and 103.14 and the “Average Conc. (group of 3 mice)” value (PP2A [2]; [8]) was 2082.71. For the same compound, the “Average Relative Activity” value (PP2A [2]; [8]) was 74.99, the “Conc. (phosphate, single reading, per mouse)” value (PP2A [2]; [8]) was 1999.47 and 1945.40 and 1958.41 and 2142.56 and 2296.42 and 2382.19 and the “Mean Conc. (per mouse)” value (PP2A [2]; [8]) was 1972.43 and 2050.48 and 2339.31. The “Mean Conc. less IgG blank (per mouse)” value (PP2A [2]; [8]) was 1934.40 and 2012.45 and 2301.28, the “Relative Conc. (per mouse, to vehicle)” value (PP2A [2]; [8]) was 0.79 and 0.82 and 0.94 and the “Relative PP2A Activity (per mouse, vehicle = 100)” value (PP2A [2]; [8]) was 69.65 and 72.46 and 82.86. For the same compound, the “Average Conc. (group of 3 mice)” value (PP2A [2]; [5]) was 1599.57, the “Average Relative Activity” value (PP2A [2]; [5]) was 64.90 and the “Conc. (phosphate, single reading, per mouse)” value (PP2A [2]; [5]) was 1332.79 and 1495.39 and 2603.34 and 1925.68 and 1273.84 and 1194.57. For the same compound, the “Mean Conc. (per mouse)” value (PP2A [2]; [5]) was 1414.09 and 2264.51 and 1234.21, the “Mean Conc. less IgG blank (per mouse)” value (PP2A [2]; [5]) was 1376.06 and 2226.48 and 1196.18 and the “Relative Conc. (per mouse, to vehicle)” value (PP2A [2]; [5]) was 0.63 and 1.03 and 0.55. The “Relative PP2A Activity (per mouse, vehicle = 100)” value (PP2A [2]; [5]) was 55.83 and 90.34 and 48.53, the “Average Conc. (group of 3 mice)” value (PP2A [2]; [6]) was 1662.31 and the “Average Relative Activity” value (PP2A [2]; [6]) was 59.85. The “Conc. (phosphate, single reading, per mouse)” value (PP2A [2]; [6]) was 1514.30 and 1280.55 and 1980.77 and 1880.56 and 1846.62 and 1699.26, the “Mean Conc. (per mouse)” value (PP2A [2]; [6]) was 1397.42 and 1930.66 and 1772.94 and the “Mean Conc. less IgG blank (per mouse)” value (PP2A [2]; [6]) was 1359.40 and 1892.63 and 1734.91. The “Relative Conc. (per mouse, to vehicle)” value (PP2A [2]; [6]) was 0.56 and 0.77 and 0.71 and the “Relative PP2A Activity (per mouse, vehicle = 100)” value (PP2A [2]; [6]) was 48.95 and 68.15 and 62.47.

Reference: patent US20160264593A1 (priority 2013, published 2016)
